The values that follow come from patent US12590062B2, “PD-1/PD-L1 inhibitors” (Gilead Sciences, Inc., priority 2017, dated 2026).

pEC50: −log10 of the molar value. A value given as a limit tells only on which side of the number the result lay.

As usually defined, the pEC50 is the EC50 on a negative log10 scale, so that one unit is a factor of ten.

T1 sequence (Q9NZQ7 19-290): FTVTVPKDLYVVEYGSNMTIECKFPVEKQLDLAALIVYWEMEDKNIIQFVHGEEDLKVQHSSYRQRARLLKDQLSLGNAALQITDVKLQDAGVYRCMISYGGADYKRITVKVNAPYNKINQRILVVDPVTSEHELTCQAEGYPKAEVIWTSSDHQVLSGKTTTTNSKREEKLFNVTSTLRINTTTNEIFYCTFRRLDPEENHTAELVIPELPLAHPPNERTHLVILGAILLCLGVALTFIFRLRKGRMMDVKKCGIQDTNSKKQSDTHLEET

This experiment concerns the target T1, PD-1/PD-L1 interaction (Homo sapiens, UniProt Q9NZQ7).
T1 construct: expressed in transfected cells; host or cells: CHO cells (aAPC-PD-L1) co-cultured with Jurkat cells overexpressing PD-1 and an NFAT-luciferase reporter
The experiment is described as follows: PD-1/PD-L1 NFAT reporter co-culture assay. In kind it is cell-based. The conditions noted are these: Jurkat PD-1 NFAT-luciferase cells co-cultured with aAPC-PD-L1 CHO cells, 6 hrs at 37° C.; read-out: EC50 NFAT Luciferase. Summed up:
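First, CHO cells displaying anti-CD3 antibody and PD-L1 were plated overnight. Next, compound-treated PD-1 Jurkat NFAT-luciferase reporter cells in 2% FBS RPMI were added for 6 h at 37 °C. Finally, ONE-Glo luminescence was read and EC50 values fitted with a four-parameter equation.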
On to `COc1nc(OCc2cccc(-c3cccc(COc4nc(OC)c(CN(C)CCN5CCOCC5)cc4Br)c3C)c2C)c(Br)cc1CN(C)CCN1CCOCC1` [Example 268, N,N′-(((((2,2′-dimethyl-[1,1′-biphenyl]-3,3′-diyl)bis(methylene))bis(oxy))bis(5-bromo-2-methoxypyridine-6,3-diyl))bis(methylene))bis(N-methyl-2-morpholinoethan-1-amine)], for which the pEC50 is 6.00.
For `COc1nc(OCc2cccc(-c3cccc(COc4nc(OC)c(CN5CCNC(=O)C5)cc4Br)c3C)c2C)c(Br)cc1CN1CCNC(=O)C1` [Example 270, 4,4′-(((((2,2′-dimethyl-[1,1′-biphenyl]-3,3′-diyl)bis(methylene))bis(oxy))bis(5-bromo-2-methoxypyridine-6,3-diyl))bis(methylene))bis(piperazin-2-one)] the value was at most 4.30; for `CNC(=O)[C@](C)(CO)NCc1cc(Br)c(OCc2cccc(-c3cccc(COc4nc(OC)c(CN[C@@](C)(CO)C(=O)NC)cc4Br)c3C)c2C)nc1OC` [Example 274, (2S,2′S)-2,2′-((((((2,2′-dimethyl-[1,1′-biphenyl]-3,3′-diyl)bis(methylene))bis(oxy))bis(5-bromo-2-methoxypyridine-6,3-diyl))bis(methylene))bis(azanediyl))bis(3-hydroxy-N,2-dimethylpropanamide)], 5.92; for `Cc1c(OC(F)(F)c2ccc(CNCC(=O)O)cc2)cccc1-c1cccc(OC(F)(F)c2ccc(CNCC(=O)O)cc2)c1C` [Example 278, 2,2′-((((((2,2′-dimethyl-[1,1′-biphenyl]-3,3′-diyl)bis(oxy))bis(difluoromethylene))bis(4,1-phenylene))bis(methylene))bis(azanediyl))diacetic acid], at most 4.30.
As for `Cc1c(COc2cc(OCc3cccc(C#N)c3)c(CNCCO)cc2Cl)cccc1-c1cccc(COc2cc(OCc3cccc(C#N)c3)c(CNCCO)cc2Cl)c1C` [Example 284, 3,3′-((((((2,2′-dimethyl-[1,1′-biphenyl]-3,3′-diyl)bis(methylene))bis(oxy))bis(4-chloro-6-(((2-hydroxyethyl)amino)methyl)-3,1-phenylene))bis(oxy))bis(methylene))dibenzonitrile], the negative-log EC50 (pEC50) was 5.84.
Turning to `COc1nc(OCc2cccc(-c3cccc(COc4ccc(CNC[C@@H](O)CC(=O)O)c(OC)n4)c3F)c2C)ccc1CNC[C@@H](O)CC(=O)O` [Example 285, (3S,3′S)-4,4′-((((((2-fluoro-2′-methyl-[1,1′-biphenyl]-3,3′-diyl)bis(methylene))bis(oxy))bis(2-methoxypyridine-6,3-diyl))bis(methylene))bis(azanediyl))bis(3-hydroxybutanoic acid)], the pEC50 was 5.01.
For `Cc1c(COc2cc(OCc3cncc(C#N)c3)c(CNC[C@@H](O)CC(=O)O)cc2Cl)cccc1-c1cccc(-c2nc3ccc(CNC[C@@H](O)CC(=O)O)cc3s2)c1C` [Example 286, (S)-4-(((2-(3′-((4-((((S)-3-carboxy-2-hydroxypropyl)amino)methyl)-2-chloro-5-((5-cyanopyridin-3-yl)methoxy)phenoxy)methyl)-2,2′-dimethyl-[1,1′-biphenyl]-3-yl)benzo[d]thiazol-6-yl)methyl)amino)-3-hydroxybutanoic acid] the value was 6.63; for `Cc1c(COc2nc(OCc3cc(C#N)cc(C#N)c3)c(CNC[C@@H](O)CC(=O)O)cc2Cl)cccc1-c1cccc(-c2ccc(OCCNCCO)cc2)c1C` [Example 472], 7.29.
